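Following 48 hours of exposure in 96-well plates, responses at five concentrations were used to interpolate endpoints linearly. GI50 = concentration required for 50% inhibition of growth.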 The source made the active and inactive calls. No stated cut-off is given here; in the data, active = GI50 up to about 1.1 µM and inactive = higher.
Legend:
Assay in all cases: growth of human tumour cells (NCI), 48 h
HL-60 = system: HL-60
U-251 = system: U-251
T47D = system: T47D
CCRF-CEM = system: CCRF-CEM
SN12C = system: SN12C
BT-549 = system: BT-549
NCI-H23 = system: NCI-H23
OVCAR-3 = system: OVCAR-3
Hs-578T = system: Hs-578T
M14 = system: M14
SF-295 = system: SF-295
RXF 393 = system: RXF 393
UACC-62 = system: UACC-62
LOX IMVI = system: LOX IMVI
M19-MEL = system: M19-MEL
KM-20L2 = system: KM-20L2
HOP-18 = system: HOP-18
DMS-114 = system: DMS-114
LXFL 529 = system: LXFL 529
SNB-78 = system: SNB-78

SMILES	GI50 (HL-60)	GI50 (U-251)	GI50 (T47D)	GI50 (CCRF-CEM)	GI50 (SN12C)	GI50 (BT-549)	GI50 (NCI-H23)	GI50 (OVCAR-3)	GI50 (Hs-578T)	GI50 (M14)	GI50 (SF-295)	GI50 (RXF 393)	GI50 (UACC-62)	GI50 (LOX IMVI)	GI50 (M19-MEL)	GI50 (KM-20L2)	GI50 (HOP-18)	GI50 (DMS-114)	GI50 (LXFL 529)	GI50 (SNB-78)
O=C1CCCC/C1=C1/SC(=N/c2ccccc2)/C(=N\c2ccccc2)N1c1ccccc1	> 100 µM (inactive)	> 100 µM (inactive)	> 100 µM (inactive)	> 100 µM (inactive)	> 100 µM (inactive)	> 100 µM (inactive)	> 100 µM (inactive)	40.4 µM (inactive)	78.3 µM (inactive)	> 100 µM (inactive)	86.3 µM (inactive)	0.0378 µM (active)	38.1 µM (inactive)							
N/C(S)=N/N=C/c1cc(CN2CCOCC2)c(N)cn1	48.2 µM (inactive)	56.8 µM (inactive)	85.9 µM (inactive)	40.1 µM (inactive)	62.4 µM (inactive)	78.5 µM (inactive)	39.4 µM (inactive)	27.7 µM (inactive)	> 100 µM (inactive)	18.7 µM (inactive)	36 µM (inactive)	> 100 µM (inactive)	42.4 µM (inactive)	29.9 µM (inactive)						
C=CCOC1OC(CS(=O)(=O)O)C(O)C(O)C1O (centres undefined)	> 100 µM (inactive)	> 100 µM (inactive)	> 100 µM (inactive)	> 10 µM (inactive)	> 100 µM (inactive)	> 100 µM (inactive)	> 100 µM (inactive)	> 100 µM (inactive)	> 100 µM (inactive)	> 100 µM (inactive)	> 100 µM (inactive)	> 100 µM (inactive)	> 100 µM (inactive)	> 100 µM (inactive)						
O=C(NNC(=S)Nc1ccccc1)c1nsc2ccccc12	20.1 µM (inactive)	27.1 µM (inactive)		0.36 µM (active)	31.5 µM (inactive)		36.6 µM (inactive)	10.3 µM (inactive)		14.3 µM (inactive)		40.7 µM (inactive)	26.2 µM (inactive)	23.7 µM (inactive)	28.9 µM (inactive)	30.8 µM (inactive)	10.3 µM (inactive)	24.9 µM (inactive)	28.1 µM (inactive)	47.9 µM (inactive)
CCN(CC)/[N+]([O-])=N/O	> 100 µM (inactive)			> 100 µM (inactive)	> 100 µM (inactive)		> 100 µM (inactive)	> 100 µM (inactive)		> 100 µM (inactive)	> 100 µM (inactive)	> 100 µM (inactive)	> 100 µM (inactive)	> 100 µM (inactive)	> 100 µM (inactive)	> 100 µM (inactive)			> 100 µM (inactive)	> 100 µM (inactive)
CC(=O)c1ccccc1NP(=O)(c1ccccc1)c1ccccc1	33.2 µM (inactive)	96.6 µM (inactive)	43.3 µM (inactive)	33.5 µM (inactive)	69.5 µM (inactive)	> 100 µM (inactive)	79.1 µM (inactive)	43.1 µM (inactive)	53.3 µM (inactive)	33.9 µM (inactive)	74.6 µM (inactive)	43.2 µM (inactive)	35.2 µM (inactive)	90.6 µM (inactive)						
CS(C)(=O)=Nn1c(=O)n2n(c1=O)C1c3ccccc3C2c2ccccc21	> 100 µM (inactive)	> 100 µM (inactive)	> 100 µM (inactive)	> 100 µM (inactive)			> 100 µM (inactive)	> 100 µM (inactive)		> 100 µM (inactive)	> 100 µM (inactive)	> 100 µM (inactive)	> 100 µM (inactive)	> 100 µM (inactive)						
O=C(CCCn1cnc([N+](=O)[O-])n1)NCCn1ccnc1[N+](=O)[O-]	> 100 µM (inactive)	> 100 µM (inactive)	> 100 µM (inactive)	> 100 µM (inactive)		> 100 µM (inactive)	> 100 µM (inactive)	> 100 µM (inactive)	> 100 µM (inactive)	> 100 µM (inactive)	> 100 µM (inactive)	> 100 µM (inactive)	> 100 µM (inactive)	> 100 µM (inactive)						
CSC1SCC2C(=O)N(C)C(C(C)C)C(=O)OCC(NC(=O)c3cnc4ccccc4n3)C(=O)NC(C)C(=O)N(C)C1C(=O)N(C)C(C(C)C)C(=O)OCC(NC(=O)c1cnc3ccccc3n1)C(=O)NC(C)C(=O)N2C (centres undefined)	0.0193 µM (active)	0.0075 µM (active)	0.000391 µM (active)	0.00925 µM (active)	0.0075 µM (active)	0.00158 µM (active)		0.0075 µM (active)	0.000374 µM (active)	0.000828 µM (active)	0.0075 µM (active)	0.00895 µM (active)				0.0075 µM (active)	0.0075 µM (active)	0.0104 µM (active)		0.0075 µM (active)
COC(=O)CN(C)P(=O)(N1CC1)N1CC1	26.9 µM (inactive)	> 100 µM (inactive)		36.9 µM (inactive)	69.5 µM (inactive)		83.4 µM (inactive)			> 100 µM (inactive)	90.2 µM (inactive)	> 100 µM (inactive)	90.2 µM (inactive)	76 µM (inactive)		> 100 µM (inactive)		55.1 µM (inactive)	> 100 µM (inactive)	> 100 µM (inactive)
O=C(Nc1ccc([N+](=O)[O-])cc1)C(=O)C(C(=O)c1ccccc1F)C1OC(=O)c2ccccc21 (centres undefined)	22.2 µM (inactive)	17.7 µM (inactive)		16.6 µM (inactive)	30.8 µM (inactive)		81.1 µM (inactive)			69.7 µM (inactive)	40.3 µM (inactive)	50.9 µM (inactive)	25.2 µM (inactive)	17.7 µM (inactive)	28.1 µM (inactive)	33.9 µM (inactive)		29 µM (inactive)	33.7 µM (inactive)	5.65 µM (inactive)
Nc1nc2ccc3ccccc3c2[nH]1	> 10 µM (inactive)	> 10 µM (inactive)	> 10 µM (inactive)	> 10 µM (inactive)	> 10 µM (inactive)		> 10 µM (inactive)	> 10 µM (inactive)	> 10 µM (inactive)	> 10 µM (inactive)	> 10 µM (inactive)	> 10 µM (inactive)	> 10 µM (inactive)	> 10 µM (inactive)						
Cc1ccc(S(=O)(=O)NCCSS(=O)(=O)c2ccc(C)cc2)cc1		25.5 µM (inactive)	27.7 µM (inactive)	24.3 µM (inactive)	29.7 µM (inactive)		57.4 µM (inactive)		96.4 µM (inactive)		35.6 µM (inactive)	33.8 µM (inactive)		33.4 µM (inactive)						
COc1ccc(/N=C\c2ccc(N(CCC#N)S(=O)(=O)c3ccccc3)cc2C)cc1	16.9 µM (inactive)	> 100 µM (inactive)		30.2 µM (inactive)	> 100 µM (inactive)		43 µM (inactive)	53.7 µM (inactive)		14.6 µM (inactive)	63.2 µM (inactive)	> 100 µM (inactive)	8.99 µM (inactive)		41.7 µM (inactive)	12 µM (inactive)	> 100 µM (inactive)	13.2 µM (inactive)	8.99 µM (inactive)	79.1 µM (inactive)
COc1ccc2c(O)c3[n+](cc2c1OC)CCc1cc2c(cc1-3)OCO2	33.2 µM (inactive)	> 100 µM (inactive)	88.3 µM (inactive)	52.8 µM (inactive)	> 100 µM (inactive)	72.4 µM (inactive)	> 100 µM (inactive)	> 100 µM (inactive)	> 100 µM (inactive)	> 100 µM (inactive)	42.9 µM (inactive)	25.4 µM (inactive)	37.4 µM (inactive)	69 µM (inactive)						
CN(C)C(=O)Oc1c(Br)cc(Br)cc1C(=O)OCc1ccccc1	21.4 µM (inactive)	21.6 µM (inactive)		19.3 µM (inactive)	20.8 µM (inactive)		30.6 µM (inactive)	19.1 µM (inactive)			20.9 µM (inactive)	38.4 µM (inactive)	15.7 µM (inactive)	22.8 µM (inactive)	20 µM (inactive)	22.8 µM (inactive)	33.2 µM (inactive)	19.1 µM (inactive)		33.1 µM (inactive)
C1CSCCSCCSCCSC1		> 100 µM (inactive)	> 100 µM (inactive)		> 100 µM (inactive)	> 100 µM (inactive)	> 100 µM (inactive)	> 100 µM (inactive)	> 100 µM (inactive)	> 100 µM (inactive)	> 100 µM (inactive)	> 100 µM (inactive)	> 100 µM (inactive)	> 100 µM (inactive)						
O=c1c(-c2ccccc2)c(SCCN2CCOCC2)n(-c2ccccc2)c(=S)n1-c1ccccc1	> 100 µM (inactive)	> 100 µM (inactive)		> 100 µM (inactive)		> 100 µM (inactive)	> 100 µM (inactive)	> 100 µM (inactive)	62.2 µM (inactive)		83.6 µM (inactive)	46.9 µM (inactive)	89.1 µM (inactive)	> 100 µM (inactive)						
C[N+](C)(C)CCOC(=O)/C=C/c1c[nH]cn1	> 500 µM (inactive)	> 500 µM (inactive)		> 500 µM (inactive)	> 500 µM (inactive)		> 500 µM (inactive)	> 500 µM (inactive)			> 500 µM (inactive)	> 500 µM (inactive)	> 500 µM (inactive)	> 500 µM (inactive)	> 500 µM (inactive)	> 500 µM (inactive)	> 500 µM (inactive)	> 500 µM (inactive)		> 500 µM (inactive)
CCNC(=S)NNC(=O)c1nsc2ccccc12	59.4 µM (inactive)	94.2 µM (inactive)		31 µM (inactive)	55.1 µM (inactive)		> 100 µM (inactive)	49.1 µM (inactive)		> 100 µM (inactive)		44.6 µM (inactive)	63.8 µM (inactive)	64.9 µM (inactive)	97.3 µM (inactive)	64.9 µM (inactive)	23.1 µM (inactive)	95.5 µM (inactive)	53.3 µM (inactive)	> 100 µM (inactive)

Reference: ChEMBL document CHEMBL1201862, “PubChem BioAssay data set” (2004)
